Measured values: ChEMBL document CHEMBL1154338, “Synthesis of modified homo-N-nucleosides from the reactions of mesityl nitrile oxide with 9-allylpurines and their influence on lipid peroxidation and thrombin inhibition” (Bioorg Med Chem Lett, 2009)

Key:
[1] = Antioxidant activity assessed as inhibition of xanthine-xanthine oxidase generated superoxide anion radical production at 100 uM by nitroblue tetrazolium method; assay type: functional; parameters: scale not given: the % may be the effect or the level left
[2] = test system: Radical scavenging activity; test: Antioxidant activity assessed as DPPH free radical scavenging activity at 0.05 mM after 20 mins; assay type: functional
[3] = test system: Radical scavenging activity; test: Antioxidant activity assessed as DPPH free radical scavenging activity at 0.05 mM after 60 mins; assay type: functional
[4] = Antioxidant activity assessed as inhibition of lipid peroxidation at 100 uM; assay type: functional; parameters: scale not given: the % may be the effect or the level left
[5] = Inhibition of soybean lipoxygenase; parameters: species or system Glycine max
[6] = test system: Radical scavenging activity; test: Antioxidant activity assessed as DPPH free radical scavenging activity at 0.1 mM after 20 mins; assay type: functional
[7] = test system: Radical scavenging activity; test: Antioxidant activity assessed as DPPH free radical scavenging activity at 0.1 mM after 60 mins; assay type: functional

SMILES	Activity [1] [%]	Activity [2] [%]	Activity [3] [%]	Activity [4] [%]	IC50 [5] [µM]	Activity [6] [%]	Activity [7] [%]
O=C(O)/C=C/c1ccc(O)c(O)c1	10						
Cc1cc(C)c(C2=NOC(Cn3cnc4c(N5CCCC5)ncnc43)C2)c(C)c1 (stereo not given)		11	11	52	100		
Cc1c(C)c2c(c(C)c1O)CCC(C)(C(=O)O)O2 (stereo not given)				73			
CC(Cc1ccc(O)c(O)c1)C(C)Cc1ccc(O)c(O)c1 (stereo not given)		68	72			81	83
Cc1cc(C)c(C2=NOC(Cn3cnc4c(N5CCOCC5)ncnc43)C2)c(C)c1 (stereo not given)	1			81	100	4	4
